Data from ChEMBL document CHEMBL5634123, “Design and synthesis of 1H-benzo[d]imidazole selective HDAC6 inhibitors with potential therapy for multiple myeloma” (Eur J Med Chem, 2023).

Columns and labels:
[1] = tested on: RPMI-8226; assay: Induction of apoptosis in human RPMI-8226 cells assessed as necrotic cells at 0.1 uM incubated for 24 hrs by Annexin V-FITC/PI staining based flow cytometry (reference value: 0.90 %); assay type: functional
[2] = tested on: RPMI-8226; assay: Antitumor activity against human RPMI-8226 cells xenografted in Balb/c nude mouse assessed as ratio of tumor to control at 40 mg/kg, po qd for 21 days administered consecutively relative to control; assay type: functional; settings: time 21 day

Question: How did the Activity [1] turn out when `Cn1c([C@@H](Cc2ccccc2)NCc2ccccc2)nc2cc(C(=O)NO)ccc21` was run?
Answer: 0.45%

Question: And the T/C [2]?
Answer: 34.8%
